In US6949528B1, “Compositions containing lysophosphatidic acids which inhibit apoptosis and uses thereof” (priority 1998, dated 2005):

Experiments:
[1] = tested on: C3H/10T1/2 cells; assay: Effect of proteins on anti-apoptotic activity of soy LPA, C3H/10T1/2 cell assay; assay type: cell-based; conditions: for Protein +10 (g/mL Soy LPA, percent cells saved from apoptosis): 1:10 soy-LPA to protein (weight:weight); for Protein +10 (g/mL Soy LPA, percent cells saved from apoptosis) / Protein Alone (0.01%), percent cells saved from apoptosis: 24 hours serum deprivation; for Increase with LPA: difference protein + soy LPA minus protein alone; for Protein Alone (0.01%), percent cells saved from apoptosis: protein without LPA; for enhancement of the anti-apoptotic activity of soy-LPA (more than additive protection): soy-LPA added together with protein
Method: Soy derived LPA (soy-LPA) (Avanti® Polar Lipids, Inc., Alabaster, Ala.) was stored in an organic solution and was dried immediately prior to assay using a Speed Vac (Savant Instruments, Hicksville, N.Y.). Tested proteins were resuspended at 10_mg/mL in a bicarbonate buffered saline/EDTA solution (50_mM NH4HCO3, […] NaCl, 250_(M EDTA) prior to being added to dried soy-LPA at a 1:10_soy-LPA to protein (weight:weight) ratio. The mixture was then sonicated for 5 minutes using a high power 80 Watt sonication bath (Laboratory Supplies Co., Hicksville, N.Y.). Following sonication, concentrated LPA/protein mixtures were left standing for 15 minutes at room temperature prior to dilution in cell culture assay media.
The effect of various proteins on the ability of LPA to protect serum-starved cells from apoptotic death was measured using the C3H/10T1/2 cell assay, performed as described in Example 2, above. Log phase cells were seeded in 60 mm Petri dishes at 175-350 cells per cm^2 and maintained in Basal Medium Eagle (BME) supplemented with 10% fetal calf serum (Hyclone, Logan, Utah). At time zero, serum containing media was replaced with sterile filtered BME containing the LPA/protein mixture to be tested. After 24 hours of treatment, serum deprived release (SDR) cells (the apoptotic cell population) and adherent (ADH) cells were separated and counted using an electronic cell counter (Coulter Corporation, Hialea, Fla.). SDR cells were counted with the lower threshold setting at 6.3_(m and were defined as the apoptotic cells dying in response to cultivation in serum-free-media. Approximately 95% of the SDR cells are confirmed to be apoptotic as previously shown by size, ultrastructure and DNA fragmentation analysis. Adherent cells were removed by treatment with a Hanks' balanced salt solution containing 0.05% trypsin and 0.53_mM EDTA and were counted with the lower threshold setting at 11.01_(m. All samples were tested in triplicate and serum-deprived controls (BME only) were assayed at both the beginning and end of each experiment.

[2] = tested on: C3H/10T1/2 cells; assay: Anti-apoptotic activity assay: serum deprivation of C3H/10T1/2 cells; assay type: cell-based; conditions: for Maximum effect relative to 18:1 LPA: Toxic / lowest concentration at which cytotoxic effects were observed (column Concentration for Max Effect): C3H/10T1/2 cells; for lowest concentration at which cytotoxic effects were observed (column Concentration for Max Effect): compounds exhibiting toxicity; for Concentration for Max Effect / Maximum effect relative to 18:1 LPA / Emax: serum-deprived C3H/10T1/2 cells, 24 hours of treatment; for Emax: Mus musculus, read-out: Maximum effect relative to 18:1 LPA
Excerpt: In order to determine the […] of the claimed invention, the following method of analysis was used. The cell assay is described in detail in U.S. Pat. Nos. 5,637,486, 5,620,888, and 5,681,703, and Tomei et al. (1993) Proc Natl. Aci. 90:853-857. Briefly, mouse fibroblast C3H/10T1/2 cells (clone 8) were obtained from ATCC (Rockville, Md.) and were maintained in exponential growth phase in which the cell cycle is randomly distributed and no cells are arrested in G0, and in quiescence. Exponential growth phase was assured by seeding at 2000 cells per 1 ml (5 ml for 60 mm culture plate) five days prior to the beginning of the experiment. Assays were performed on cells only up to passage 15. At T=0, cultures were transferred to serum-free medium, as an appropriate stimulus, and seed extracts were added. Controls included 10^−7 and 5×10^−8 M 12-O-tetradecanoyl phorbol-13-acetate (TPA) to ensure the responsiveness of the cell culture. The samples were added to serum free medium and sterile filtered prior to addition to the cultures. Assays were performed in triplicate or quadruplicate. Analyses of the cell responses were made between 18 and 28 hours of serum deprivation. Two assays were performed on each cell culture plate consisting of differential cell counts.
1. All non-adherent or loosely adherent cells were removed from the culture dish and counted by appropriate techniques, typically counting by electronic particle counting instrument. These are the apoptotic cells, the serum deprived released cells (SDR), released by the action of cultivation in serum-free medium. Approximately 95% of these released cells are apoptotic as shown by both ultrastructure analysis and DNA fragmentation analysis.
2. The remaining adherent cells (ADH) were exposed to a buffered, typically pH 7.3, balanced salt solution such as a Hanks Balanced Salt Solution without calcium and magnesium salts containing 0.05% trypsin and 0.53 mM ethylene diaminetetraacetic acid (EDTA). Each culture was incubated at either room temperature or 37(C on a rocking platform to ensure uniform distribution of the trypsin reagent over the culture surface. After a standardized period of time, typically 10 minutes, the released cells were removed from each culture dish and measured by the same means as described above, typically electronic particle counting. This ADH cell count is comprised of both trypsin resistant and trypsin sensitive cells as described in U.S. Pat. Nos. 5,637,486, 5,620,888, and 5,681,703.
Anti-apoptotic activity is expressed in the following examples as the calculated concentration of material ((g/ml of media) required to save 50% of the cells released on serum free treatment.
The ability of 18:1-LPA an other LPAs to protect serum-starved cells from apoptotic death was measured using the C3H/10T1/2 cell assay, performed as described in Example 2. The effect of various compounds on the ability of lysophosphatidic acid to protect serum-starved cells from apoptotic death was also measured. Log phase cells were seeded in 60 mm Petri dishes at 175-350 cells per cm2 and maintained in Basal Medium Eagle (BME) supplemented with 10% Heat Inactivated Fetal Bovine Serum (HIFBS). On day 3 the cells were given fresh media. Treatment began on day 5 when the media containing serum was removed and replaced with the LPA mixture to be tested. After 24 hours of treatment, day 6, serum deprived released (SDR) cells (the […] cell population) and adherent (ADH) cells were separated and counted using an electronic cell counter (Coulter Corporation, Hialea, Fla.). […]

Myelin Basic Protein
Protein +10 (g/mL Soy LPA, percent cells saved from apoptosis) [1]: 17.0% | Increase with LPA [1]: +0.2% | Protein Alone (0.01%), percent cells saved from apoptosis [1]: 16.8% | enhancement of the anti-apoptotic activity of soy-LPA (more than additive protection) [1]: did not enhance

CCCCCCCCCCCCCCOCC(O)COP(=O)(OC)OC (racemic) [Compound 3, Dimethyl 3-O-tetradecyl-rac-glycero-1-phosphate]
Maximum effect relative to 18:1 LPA: Toxic [2]: Toxic | lowest concentration at which cytotoxic effects were observed (column Concentration for Max Effect) [2]: 30 µM

Dimethyl 3-amino-N-oleoyl-propylphosphate [Compound 53]
Maximum effect relative to 18:1 LPA: Toxic [2]: Toxic | lowest concentration at which cytotoxic effects were observed (column Concentration for Max Effect) [2]: 100 µM

CCCCCCCC/C=C\CCCCCCCCOCC(COP(=O)(OC)OC)OC (racemic) [Compound 23, Dimethyl 1-O-oleyl-2-O-methyl-rac-glycero-1-phosphate]
Concentration for Max Effect [2]: 30 µM | Maximum effect relative to 18:1 LPA [2]: 17%

CCCCCCCCCCCCCC(=O)OC[C@@H](O)COP(=O)(O)O [14:0 LPA, reference compound]
Concentration for Max Effect [2]: 30 µM | Maximum effect relative to 18:1 LPA [2]: 80%

CCCCCCCC/C=C\CCCCCCCCOCC(COP(=O)(O)O)OC (racemic) [Compound 24, 3-O-Oleyl-2-O-methyl-rac-glycero-1-phosphate]
Emax [2]: 100% | Concentration for Max Effect [2]: 10 µM

Phosphatidylserine [Phosphatidylserine (PS)]
toxicity of lipid alone ([2]; PS alone, FIG. 2): slightly toxic

lysophosphatidyl serine [LPS, reference compound]
activity relative to 18:1-LPA ([2]; on a molar basis, FIG. 4): approximately 50%

CCCCCCCCCCCCCCOCC1CO1 (centres unmarked) [Compound 8, 1-O-Tetradecyl-glycidol]
Maximum effect relative to 18:1 LPA: Toxic [2]: Toxic | lowest concentration at which cytotoxic effects were observed (column Concentration for Max Effect) [2]: 30 µM

CCCCCCCCCCCCCCCC(=O)OCC(O)COP(=O)(O)O (centres unmarked) [16:0 LPA, Palmitoyl-LPA, reference compound]
cells protected ([2]; 5 (M, FIG. 5), medium alone 30%): about 42% | cells protected ([2]; 15 (M, FIG. 5)): 63% | Concentration for Max Effect [2]: 10 µM | Maximum effect relative to 18:1 LPA [2]: 80%

CCCCCCCC/C=C\CCCCCCCC(=O)OCC(COP(=O)(O)O)OC (racemic) [Compound 46, 3-O-Oleoyl-2-O-methyl-rac-glycero-1-phosphate]
Emax [2]: 75% | Concentration for Max Effect [2]: 30 µM

CCCCCCCC/C=C\CCCCCCCCOCC(COP(O)(=S)OCC(COCCCCCCCC/C=C\CCCCCCCC)OC)OC (racemic) [Compound 80, Bis(3-O-oleyl-2-O-methyl-rac-glyceryl)thiophosphate]
Concentration for Max Effect [2]: 3 µM | Maximum effect relative to 18:1 LPA [2]: 100%

CCCCCCCCCC(=O)OC[C@@H](O)COP(=O)(O)O [10:0 LPA, reference compound]
Concentration for Max Effect [2]: 30 µM | Maximum effect relative to 18:1 LPA [2]: 30%

CCCCCCCC/C=C\CCCCCCCC(=O)OCC(Br)COP(=O)(O)O (racemic) [Compound 37, 3-O-Oleoyl-2-deoxy-2-bromo-rac-glycero-1-phosphate]
Concentration for Max Effect [2]: 30 µM | Maximum effect relative to 18:1 LPA [2]: 75%

CCCCCCCC/C=C\CCCCCCCC(=O)NC(C)COP(=O)(O)O (centres unmarked) [Compound 61, 2-Amino-2-N-oleoyl-propyl phosphate]
Concentration for Max Effect [2]: 30 µM | Maximum effect relative to 18:1 LPA [2]: 70%

Casein
Protein +10 (g/mL Soy LPA, percent cells saved from apoptosis) [1]: 84.3% | Increase with LPA [1]: +20.9% | Protein Alone (0.01%), percent cells saved from apoptosis [1]: 63.4% | enhancement of the anti-apoptotic activity of soy-LPA (more than additive protection) [1]: to a lesser degree

CCCCCCCC/C=C\CCCCCCCC(=O)NCCOP(=O)(OC)OC [Compound 59, Dimethyl 2-amino-2-N-oleoyl-ethylphopshate]
Maximum effect relative to 18:1 LPA: Toxic [2]: Toxic | lowest concentration at which cytotoxic effects were observed (column Concentration for Max Effect) [2]: 30 µM

CCCCCCCCCCCCCCCCCC(=O)OCC(O)COP(=O)(O)O (centres unmarked) [stearyl-LPA, reference compound]
cells protected ([2]; 5 (M, FIG. 6)): 63% | cells protected ([2]; 15 (M, FIG. 6)): 65%

phosphatidyl choline [PC]
cells survived ([2]; lipids alone added to culture medium, FIG. 3): about 25%

CCCCCCCC/C=C\CCCCCCCCCCCCOP(=O)(O)O [Compound 71, Erucyl phosphate]
Concentration for Max Effect [2]: 100 µM | Maximum effect relative to 18:1 LPA [2]: 76%

B1: Myoglobin: myoglobin from horse heart (protein, UniProt P68082 2-154, looked up)
Myoglobin: GLSDGEWQQVLNVWGKVEADIAGHGQEVLIRLFTGHPETLEKFDKFKHLKTEAEMKASEDLKKHGTVVLTALGGILKKKGHHEAELKPLAQSHATKHKIPIKYLEFISDAIIHVLHSKHPGDFGADAQGAMTKALELFRNDIAAKYKELGFQG
Protein +10 (g/mL Soy LPA, percent cells saved from apoptosis) [1]: 27.8% | Increase with LPA [1]: +18.5% | Protein Alone (0.01%), percent cells saved from apoptosis [1]: 9.3% | enhancement of the anti-apoptotic activity of soy-LPA (more than additive protection) [1]: to a lesser degree
